Assay results from US10059717B2, “Urea compounds containing 3,4-dihydropyrimido[4,5-D]pyrimidin-2(1H)-one skeleton as protein kinase inhibitors” (KOREA INSTITUTE OF SCIENCE AND TECHNOLOGY, priority 2016, dated 2018).

Legend:
Assay in all cases: Kinase panel biochemical assay
Conditions in all cases: 1 μM single concentration, read-out: % residual enzyme activity
ABL1 = ABL1 (Homo sapiens, UniProt P00519)
Method: (§1) In order to measure the protein kinase inhibitory activity (% inhibition) of the compounds of the present invention, biochemical assays were performed on the full kinase panel listed in the following Table 1.
(§2) As an test compound, 1-(3-(7-((6-(4-ethylpiperazine-1-carbonyl)pyridin-3-yl)amino)-1-methyl-2-oxo-1,4-dihydropyrimido[4,5-d]pyrimidin-3(2H)-yl)-4-methylphenyl)-3-(2-methoxyphenyl)urea (Compound No. 14) was used. The kinase inhibitory efficacy was measured upon treatment with a 1 μM single concentration of the test compound to calculate % residual enzyme activity value.
(§3) ABL1, FGFR2, TAOK2/TAO1, EPHA5, EPHB2, EPHB3, RET, LYN B, EPHA2, FRK/PTK5, EPHA8, LCK, EPHB4, FYN, KHS/MAP4K5, DDR1, EPHA3, P38a/MAPK14, EPHA4, FMS, EPHB1, HCK, FGFR1, ABL2/ARG, EPHA6, c-Src, ACK1, FLT4NEGFR3, ERBB4/HER4, DDR2, KDRNEGFR2, LYN, ZAK/MLTK, YES/YES1, BLK, FGR, MLCK2/MYLK2, TAOK1, BMX/ETK, BTK, EPHA1, JAK1, P38b/MAPK11, TIE2/TEK, FLT1NEGFR1, TXK, SRMS, RAF1, SIK1, MLK3/MAP3K11, PEAK1, TRKA, EPHA7, GLK/MAP4K3, MLK2/MAP3K10, TEC, CSK, TRKC, FES/FPS, SIK2, FGFR3, BRK, YSK4/MAP3K19, ARAF, PDGFRb, TNK1, GCK/MAP4K2, PDGFRa, TNIK, TAK1, ERBB2/HER2, LIMK1, HIPK4, FER, EGFR, JAK2, HPK1/MAP4K1, TRKB, RIPK3, LOK/STK10, LIMK2, MLK1/MAP3K9, BRAF, MEKK3, MEK5, STK32B/YANK2, FGFR4, MEKK2, SLK/STK2, FLT3, PKAcg, TAOK3/JIK, TYRO3/SKY, SIK3, IR, LRRK2, PYK2, NEK11, p70S6K/RPS6KB1, LATS2.

BLK = BLK (Homo sapiens, UniProt P51451)
Method: as §1, §2, §3

TYRO3/SKY = TYRO3/SKY (Homo sapiens, UniProt Q06418)
Method: as §1, §2, §3

BRAF = BRAF (Homo sapiens, UniProt P15056)
Method: as §1, §2, §3

EPHB2 = EPHB2 (Homo sapiens, UniProt P29323)
Method: as §1, §2, §3

TAOK3/JIK = TAOK3/JIK (Homo sapiens, UniProt Q9H2K8)
Method: as §1, §2, §3

TAK1 = TAK1 (Homo sapiens, UniProt O43318)
Chain of TAK1 (O43318 1-303 limits assumed): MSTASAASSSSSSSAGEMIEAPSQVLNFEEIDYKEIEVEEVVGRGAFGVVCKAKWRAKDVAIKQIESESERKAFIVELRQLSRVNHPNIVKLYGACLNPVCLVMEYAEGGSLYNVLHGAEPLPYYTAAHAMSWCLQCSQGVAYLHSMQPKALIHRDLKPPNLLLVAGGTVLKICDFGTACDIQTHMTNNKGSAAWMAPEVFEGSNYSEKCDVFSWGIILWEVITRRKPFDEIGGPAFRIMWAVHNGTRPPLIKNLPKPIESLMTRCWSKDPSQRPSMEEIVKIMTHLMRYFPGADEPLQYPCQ
Method: as §1, §2, §3

IR = IR (Homo sapiens, UniProt P06213)
Method: as §1, §2, §3

FGR = FGR (Homo sapiens, UniProt P09769)
Method: as §1, §2, §3

MLK1/MAP3K9 = MLK1/MAP3K9 (Homo sapiens, UniProt P80192)
Chain of MLK1/MAP3K9 (P80192 whole entry): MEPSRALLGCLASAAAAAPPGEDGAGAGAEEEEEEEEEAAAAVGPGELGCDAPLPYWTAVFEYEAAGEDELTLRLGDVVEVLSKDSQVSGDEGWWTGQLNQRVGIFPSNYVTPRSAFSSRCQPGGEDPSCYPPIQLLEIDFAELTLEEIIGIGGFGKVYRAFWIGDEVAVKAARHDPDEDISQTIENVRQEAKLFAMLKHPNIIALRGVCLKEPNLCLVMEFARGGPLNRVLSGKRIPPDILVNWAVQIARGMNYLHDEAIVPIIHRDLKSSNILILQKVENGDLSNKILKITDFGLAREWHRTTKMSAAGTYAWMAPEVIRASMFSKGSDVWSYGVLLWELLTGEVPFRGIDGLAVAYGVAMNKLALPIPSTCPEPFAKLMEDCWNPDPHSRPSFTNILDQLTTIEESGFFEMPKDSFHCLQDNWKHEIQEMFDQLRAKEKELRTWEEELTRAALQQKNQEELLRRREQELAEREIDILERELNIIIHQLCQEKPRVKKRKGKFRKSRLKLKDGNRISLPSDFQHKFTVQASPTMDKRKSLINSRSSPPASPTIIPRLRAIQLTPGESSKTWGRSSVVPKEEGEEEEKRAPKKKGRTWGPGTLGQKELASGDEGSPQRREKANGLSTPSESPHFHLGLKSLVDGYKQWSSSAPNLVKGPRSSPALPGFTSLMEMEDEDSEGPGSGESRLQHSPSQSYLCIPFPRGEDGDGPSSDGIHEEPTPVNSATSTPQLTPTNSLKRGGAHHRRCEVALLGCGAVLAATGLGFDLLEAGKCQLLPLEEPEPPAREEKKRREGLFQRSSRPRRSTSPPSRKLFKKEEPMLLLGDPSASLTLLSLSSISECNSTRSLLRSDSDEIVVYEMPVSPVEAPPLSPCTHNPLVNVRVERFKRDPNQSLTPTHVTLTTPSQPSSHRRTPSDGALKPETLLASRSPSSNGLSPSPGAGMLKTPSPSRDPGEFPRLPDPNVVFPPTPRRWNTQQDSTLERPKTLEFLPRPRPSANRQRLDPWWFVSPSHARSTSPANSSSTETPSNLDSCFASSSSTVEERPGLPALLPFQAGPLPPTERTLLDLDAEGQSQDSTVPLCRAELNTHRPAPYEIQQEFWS
Method: as §1, §2, §3

TAOK2/TAO1 = TAOK2/TAO1 (Homo sapiens, UniProt Q9UL54)
Chain of TAOK2/TAO1 (Q9UL54 whole entry): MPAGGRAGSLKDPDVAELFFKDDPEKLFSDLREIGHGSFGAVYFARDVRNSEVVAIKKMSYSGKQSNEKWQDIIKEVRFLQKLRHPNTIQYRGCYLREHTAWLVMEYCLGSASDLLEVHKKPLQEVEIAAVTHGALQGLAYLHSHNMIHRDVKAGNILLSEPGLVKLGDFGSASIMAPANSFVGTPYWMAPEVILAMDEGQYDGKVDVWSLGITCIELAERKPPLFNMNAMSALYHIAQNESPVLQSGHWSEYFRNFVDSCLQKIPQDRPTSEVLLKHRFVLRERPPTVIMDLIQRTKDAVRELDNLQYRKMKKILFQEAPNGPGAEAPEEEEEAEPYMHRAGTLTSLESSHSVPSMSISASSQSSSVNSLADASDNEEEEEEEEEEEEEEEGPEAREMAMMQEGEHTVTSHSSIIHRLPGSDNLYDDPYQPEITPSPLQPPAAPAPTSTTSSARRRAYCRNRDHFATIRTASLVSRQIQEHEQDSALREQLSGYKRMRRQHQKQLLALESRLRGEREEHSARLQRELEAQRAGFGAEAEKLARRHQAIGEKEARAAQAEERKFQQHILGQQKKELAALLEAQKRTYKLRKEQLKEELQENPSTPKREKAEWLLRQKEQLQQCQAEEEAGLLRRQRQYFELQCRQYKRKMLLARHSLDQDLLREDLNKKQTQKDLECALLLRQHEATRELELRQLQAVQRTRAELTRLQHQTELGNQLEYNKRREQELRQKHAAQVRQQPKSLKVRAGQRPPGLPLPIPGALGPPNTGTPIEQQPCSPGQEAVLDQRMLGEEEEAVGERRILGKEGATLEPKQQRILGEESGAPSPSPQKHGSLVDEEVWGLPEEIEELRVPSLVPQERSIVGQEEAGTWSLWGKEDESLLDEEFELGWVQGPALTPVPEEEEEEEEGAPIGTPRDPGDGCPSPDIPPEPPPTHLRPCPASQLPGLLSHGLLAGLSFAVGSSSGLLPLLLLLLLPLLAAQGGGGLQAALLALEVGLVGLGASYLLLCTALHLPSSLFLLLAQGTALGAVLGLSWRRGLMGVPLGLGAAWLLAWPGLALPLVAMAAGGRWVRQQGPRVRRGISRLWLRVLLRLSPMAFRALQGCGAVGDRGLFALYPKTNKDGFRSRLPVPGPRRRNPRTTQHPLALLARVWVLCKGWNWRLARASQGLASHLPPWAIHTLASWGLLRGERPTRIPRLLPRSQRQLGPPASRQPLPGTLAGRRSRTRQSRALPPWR
Method: as §1, §2, §3

LOK/STK10 = LOK/STK10 (Homo sapiens, UniProt O94804)
Method: as §1, §2, §3

LIMK1 = LIMK1 (Homo sapiens, UniProt P53667)
Method: as §1, §2, §3

SIK1 = SIK1 (Homo sapiens, UniProt P57059)
Method: as §1, §2, §3

RIPK3 = RIPK3 (Homo sapiens, UniProt Q9Y572)
Method: as §1, §2, §3

EPHA6 = EPHA6 (Homo sapiens, UniProt Q9UF33)
Method: as §1, §2, §3

YSK4/MAP3K19 = YSK4/MAP3K19 (Homo sapiens, UniProt Q56UN5)
Method: as §1, §2, §3

SIK2 = SIK2 (Homo sapiens, UniProt Q9H0K1)
Method: as §1, §2, §3

ERBB4/HER4 = ERBB4/HER4 (Homo sapiens, UniProt Q15303)
Method: as §1, §2, §3

TXK = TXK (Homo sapiens, UniProt P42681)
Method: as §1, §2, §3

LYN B = LYN B (Homo sapiens, UniProt P07948)
Chain of LYN B (P07948 1-491 isoform P07948-2): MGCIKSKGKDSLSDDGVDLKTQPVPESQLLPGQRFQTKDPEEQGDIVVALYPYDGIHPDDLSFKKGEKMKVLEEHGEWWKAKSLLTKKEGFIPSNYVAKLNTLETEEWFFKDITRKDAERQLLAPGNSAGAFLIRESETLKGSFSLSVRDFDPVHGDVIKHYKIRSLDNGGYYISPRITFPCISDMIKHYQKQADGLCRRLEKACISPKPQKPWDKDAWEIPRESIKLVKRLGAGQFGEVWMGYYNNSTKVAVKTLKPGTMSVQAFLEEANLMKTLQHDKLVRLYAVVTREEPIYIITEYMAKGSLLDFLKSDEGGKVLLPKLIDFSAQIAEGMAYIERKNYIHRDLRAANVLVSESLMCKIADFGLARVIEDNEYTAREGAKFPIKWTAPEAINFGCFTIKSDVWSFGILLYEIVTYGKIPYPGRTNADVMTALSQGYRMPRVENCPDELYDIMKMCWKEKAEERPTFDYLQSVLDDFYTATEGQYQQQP
Method: as §1, §2, §3

HCK = HCK (Homo sapiens, UniProt P08631)
Chain of HCK (P08631 whole entry): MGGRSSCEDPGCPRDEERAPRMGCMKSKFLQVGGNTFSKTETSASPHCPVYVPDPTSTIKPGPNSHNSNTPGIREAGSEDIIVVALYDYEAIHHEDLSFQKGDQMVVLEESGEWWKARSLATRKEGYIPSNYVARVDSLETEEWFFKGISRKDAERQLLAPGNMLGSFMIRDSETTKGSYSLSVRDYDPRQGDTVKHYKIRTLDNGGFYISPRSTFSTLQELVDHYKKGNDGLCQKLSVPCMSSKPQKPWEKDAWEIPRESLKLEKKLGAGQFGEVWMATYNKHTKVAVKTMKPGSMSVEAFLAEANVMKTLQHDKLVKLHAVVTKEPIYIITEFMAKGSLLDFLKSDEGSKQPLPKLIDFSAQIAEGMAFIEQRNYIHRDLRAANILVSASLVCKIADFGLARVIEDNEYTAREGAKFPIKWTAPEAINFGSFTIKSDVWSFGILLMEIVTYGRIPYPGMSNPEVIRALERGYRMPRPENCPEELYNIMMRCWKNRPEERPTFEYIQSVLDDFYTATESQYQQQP
Method: as §1, §2, §3

DDR1 = DDR1 (Homo sapiens, UniProt Q08345)
Method: as §1, §2, §3

MEK5 = MEK5 (Homo sapiens, UniProt Q13163)
Chain of MEK5 (Q13163 whole entry): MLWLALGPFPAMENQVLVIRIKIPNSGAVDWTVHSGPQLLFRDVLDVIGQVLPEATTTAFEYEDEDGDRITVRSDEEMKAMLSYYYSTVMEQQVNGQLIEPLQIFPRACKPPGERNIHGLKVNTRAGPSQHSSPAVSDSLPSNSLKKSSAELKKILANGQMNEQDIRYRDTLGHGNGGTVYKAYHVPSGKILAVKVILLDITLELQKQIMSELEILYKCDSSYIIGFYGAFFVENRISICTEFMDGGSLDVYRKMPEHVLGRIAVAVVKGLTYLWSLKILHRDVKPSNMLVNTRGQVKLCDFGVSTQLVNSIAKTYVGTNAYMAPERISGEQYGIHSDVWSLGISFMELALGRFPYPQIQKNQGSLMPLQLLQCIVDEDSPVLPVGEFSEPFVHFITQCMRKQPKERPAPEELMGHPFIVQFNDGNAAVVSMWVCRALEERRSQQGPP
Method: as §1, §2, §3

LRRK2 = LRRK2 (Homo sapiens, UniProt Q5S007)
Method: as §1, §2, §3

KHS/MAP4K5 = KHS/MAP4K5 (Homo sapiens, UniProt Q9Y4K4)
Method: as §1, §2, §3

RET = RET (Homo sapiens, UniProt P07949)
Method: as §1, §2, §3

EPHA5 = EPHA5 (Homo sapiens, UniProt P54756)
Method: as §1, §2, §3

MEKK2 = MEKK2 (Homo sapiens, UniProt Q9Y2U5)
Method: as §1, §2, §3

GLK/MAP4K3 = GLK/MAP4K3 (Homo sapiens, UniProt Q8IVH8)
Chain of GLK/MAP4K3 (Q8IVH8 whole entry): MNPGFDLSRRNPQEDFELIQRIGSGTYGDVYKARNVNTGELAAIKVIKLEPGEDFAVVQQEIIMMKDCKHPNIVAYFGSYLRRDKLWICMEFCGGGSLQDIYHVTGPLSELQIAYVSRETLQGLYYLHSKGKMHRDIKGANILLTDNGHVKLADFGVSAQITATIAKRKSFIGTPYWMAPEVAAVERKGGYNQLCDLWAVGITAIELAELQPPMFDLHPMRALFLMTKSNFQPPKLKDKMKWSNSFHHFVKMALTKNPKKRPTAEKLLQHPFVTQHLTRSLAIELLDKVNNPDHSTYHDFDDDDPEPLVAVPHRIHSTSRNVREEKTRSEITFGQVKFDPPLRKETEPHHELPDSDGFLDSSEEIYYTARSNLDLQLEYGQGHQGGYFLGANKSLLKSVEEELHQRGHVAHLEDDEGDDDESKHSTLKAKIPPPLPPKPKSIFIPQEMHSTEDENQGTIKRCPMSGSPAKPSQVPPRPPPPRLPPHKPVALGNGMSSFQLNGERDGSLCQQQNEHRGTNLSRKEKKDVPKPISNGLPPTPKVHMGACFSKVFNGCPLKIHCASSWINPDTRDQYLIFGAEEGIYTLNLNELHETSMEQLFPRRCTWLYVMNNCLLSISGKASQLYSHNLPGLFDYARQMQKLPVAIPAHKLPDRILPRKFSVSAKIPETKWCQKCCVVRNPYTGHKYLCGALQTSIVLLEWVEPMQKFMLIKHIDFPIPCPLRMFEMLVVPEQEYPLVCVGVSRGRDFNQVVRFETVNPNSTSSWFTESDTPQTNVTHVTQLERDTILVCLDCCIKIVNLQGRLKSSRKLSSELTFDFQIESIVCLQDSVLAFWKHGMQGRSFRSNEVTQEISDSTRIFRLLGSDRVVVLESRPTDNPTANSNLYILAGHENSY
Method: as §1, §2, §3

EGFR = EGFR (Homo sapiens, UniProt P00533)
Method: as §1, §2, §3

Measured: remaining activity at 1 µM

CCN1CCN(C(=O)c2ccc(Nc3ncc4c(n3)N(C)C(=O)N(c3cc(NC(=O)Nc5ccccc5OC)ccc3C)C4)cn2)CC1 [Compound No. 14, 1-(3-(7-((6-(4-ethylpiperazin-1-carbonyl)pyridin-3-yl)amino)-1-methyl-2-oxo-1,4-dihydropyrimido[4,5-d]pyrimidin-3(2H)-yl)-4-methylphenyl)-3-(2-methoxyphenyl)urea]
≤ 30%: all assays above
